The conditions of data set [1]: thiol pKa; thioredoxin: active site Cys32; cited from earlier work.
Data set [2] deals with primary HBE cells from healthy non-CF donors. Nature of the data set: μOCT of MCT rate and CBF in non-CF primary HBE cells. It counts as cell-based, human. As to conditions: 3 hrs post-treatment; ORP100S 1-3 mM, DTT 1.6 mM; PBS 0.05±0.007; mean±SE. From the text:
(§1) Primary human bronchial epithelial (HBE) cells were derived from lung explants from healthy failed donors and CF patients homozygous for F508del CFTR. […]
(§2) One-micron resolution spectral domain μOCT was used to obtain measurements of mucociliary transport (MCT) rate and ciliary beat frequency (CBF) in HBE monolayers and of MCT rate of sputum ex vivo. This first-in-kind, high-speed (40 frames per second, 512 lines per frame) microscopic reflectance imaging modality enables simultaneous anatomic imaging in cell cultures and intact tissues that readily distinguishes the properties of CF compared to normal epithelia (Liu L, Chu K K, Houser G H, Diephuis B J, Li Y, Wilsterman E J, Shastry S, Dierksen G, Birket S E, Mazur M, et al., 2013, Method for quantitative study of airway functional microanatomy using micro-optical coherence tomography, PLoS One 8(1):e54473; Tuggle K L, Birket S E, Cui X, Hong J, Warren J, Reid L, Chambers A, Ji D, Gamber K, Chu K K, et al., 2014, Characterization of defects in ion transport and tissue development in Cystic Fibrosis Transmembrane Conductance Regulator (CFTR)-knockout rats. […] Images were captured, and MCT rate and CBF calculated, as described in the preceding references.

The next data set concerns mucins of 4% HBE mucus. Nature of the data set: mucin molecular weight by GPC-MALLS. As to conditions: 1 mM, 1 hr at 37° C.; from 180 MDa. It counts as biochemical, human. From the text:
Mucus Preparation: Aseptic mucus was harvested from over 100 individual HBE cultures from 20 different CF donors and prepared to four weight-percent (4%) solids, a concentration that typifies chronic obstructive pulmonary disease (COPD) and mild CF (Hill, D. B. et al., 2014, A biophysical basis for mucus solids concentration as a candidate biomarker for airways disease, PloS one 9, e87681; Anderson, W. H. et al., 2015, The relationship of mucus concentration (hydration) to mucus osmotic pressure and transport in chronic bronchitis., Am J Resp Crit Care Med 192: 182-90). […] Creep recovery experiments were performed in which a known stress (between 0.05 and ˜100 Pa) was applied to treated or control mucus for 10 seconds, and the rheological recovery of the fluid was recorded for an additional 50 seconds. […] From the measured parameters the viscosity and elasticity of the fluid were determined as a function of applied stress. […] Mucin molecular weight determination: Molecular weight reduction following test article treatment was determined using a combination of gel-permeation chromatography with multi-angle laser light scattering on a Wyatt Heleos MALLS system. […] Mucin MW was determined by fitting a Berry model to light scattering from 11 different angles using Wyatt Astra software. […]

Data set [3] has as its system primary HBE cells from CF donors homozygous for F508del. Kind of data set: μOCT of MCT rate and CBF in CF primary HBE cells. It counts as cell-based, human. To be noted: 3 hrs post-treatment; ORP100S 1-3 mM, DTT 1.6 mM; PBS 7.30±2.9; mean±SE.
Source text: as §1, §2

Data set [4] deals with CF patient sputum on wild type rat trachea. Kind of data set: CF sputum transport ex vivo on excised rat trachea (μOCT). Further details: species or system human sputum. As to conditions: sputum treated 2 hrs; ORP100S 3 mM, DTT 1.6 mM, DNase 10 or 25 μg/ml; PBS 0.97±0.17. As to the method:
To determine the effect of ORP100S on CF sputum transportability, sputum specimens spontaneously expectorated from 4 CF patients hospitalized for pulmonary exacerbation were collected and stored at 4° C. before being divided into 200 μL aliquots and treated with ORP100S (3 mM), PBS, DTT (1.6 mM), or DNase (10 or 25 μg/ml) on the day of or day following collection. Upon treatment, sputum aliquots were placed in a 37° C. water bath for 2 hrs and then applied (3 μl per sample) for μOCT imaging to the distal end of trachea excised from adult non-CF rats. Trachea were washed 2× with 500 μl of PBS before sputum addition. […]
One-micron resolution spectral domain μOCT was used to obtain measurements of mucociliary transport (MCT) rate and ciliary beat frequency (CBF) in HBE monolayers and of MCT rate of sputum ex vivo. […] Images were captured, and MCT rate and CBF calculated, as described in the preceding references.
The effect of ORP100S on mucus clearance using intact rat trachea, which include the complexities of the airway surface such as gland expression of a fully differentiated mucosal surface, was further evaluated. […] MCT was measured by projecting a cross-sectional line through the mucus through time, with the slope of the particle trajectories indicating velocity. […]

For the next data set, the target named is T1, human insulin (Homo sapiens, UniProt P01308).
T1 construct: The two chains of human insulin have a total of six Cys residues which form three disulfide bonds in its mature structure
T1 sequence (P01308 25-54 limits assumed): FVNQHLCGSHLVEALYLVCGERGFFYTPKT
T1 sequence (P01308 90-110 limits assumed): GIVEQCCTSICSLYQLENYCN
Kind of data set: RP-HPLC insulin reduction assay (conversion of insulin heterodimer). Type of data set: biochemical. The method, then: Functional assays 1. Reduction state of ORP100S was quantified using DTNB which reacts with free SH groups resulting in a yellow color change at 412 nm. Fifty microliters of 2.5 mM rhTrx was added to a 96-well plate, followed by 175 microliters of sample buffer and 25 microliters of 6 mM DTNB. After reactions were initiated by the addition of DTNB, change in kinetic absorbance at 412 nm due to DTNB reduction was monitored spectrophotometrically at 30° C. ORP100S concentration was determined by A280 (Nanodrop) using the extinction coefficient of human Trx-1 (7,000). The actual concentrations of free sulfhydryl groups were calculated based on the absorbance at 412 nm and the extinction coefficient of DTNB (14,150) in order to determine the reduction state as percentage of free sulfhydryl. […] 2. Percent of free monomer ORP100S in solution was determined using SEC. Samples were analyzed on a BioBasic S-300 250×4.6 column (Thermo Scientific) run on an Agilent 1100 HPLC system. […] The flow rate was 0.35 mL/min and absorbance was monitored at 280 nm. […] The ORP100S monomer percentage was determined by integration of the area under the peak of the monomeric fraction divided by the total area under the curve of the chromatogram. […] Disulfide bond reduction activity of ORP100S was quantified by assaying the reduction state of a small protein (human insulin) which in its heterodimeric form contains two intermolecular and one intramolecular disulfide, all three of which are known to be suitable thioredoxin substrates. Insulin reduction has classically been used to quantify thioredoxin activity by absorbance change following addition of NADPH and TrxR (Holmgren A., 1979, Thioredoxin catalyzes the reduction of insulin disulfides by dithiothreitol and dihydrolipoamide, J Biol Chem 254:9627-32). […] Relative activity at each time point was determined from changes in the area under the insulin heterodimer peak following separation over RP-HPLC (Agilent 1100) using an Intrada WP-RP 50×3 (Imtakt) column. […] The flow rate was 0.2 mL/min and absorbance was measured at 280 nm. […]

Values joined by “and” are separate entries in the source; they are usually repeats but may differ in a detail not shown here. Equal values may be shown once.

For the compound `N[C@@H](CCC(=O)N[C@@H](CS)C(=O)NCC(=O)O)C(=O)O` [GSH, glutathione], in data set [1], the pKa is recorded as 9.1.
`NCCS` [cysteamine]: the pKa in data set [1] was 8.3 and 8.5.
For the compound `O=S(=O)(O)CCS` [Mesna, 2-mercaptoethane sulfonate Na], the pKa in data set [1] is recorded as 9.2.
For `O[C@H](CS)[C@H](O)CS` (racemic) [DTT, dithiothreitol, reference compound], the MCT rate in data set [2] turned out to be 1.41±0.1 mm/min; in data set [3], 33.33±12.9 mm/min. Moreover, in the data set with mucins of 4% HBE mucus, the “molecular weight of mucins” value is listed as 210 MDa. Further, the “MCT rate of treated sputum” value in data set [4] amounted to 2.31±0.34 mm/min.
Take `CC(=O)N[C@@H](CS)C(=O)O` [NAC, N-acetyl cysteine, reference compound]: the insulin reduction result on human insulin (1.25 mM, pH 6 or 8, 60 min) was “inactive”; on human insulin (12.5 mM, pH 6, 60 min) it was “not at pH 6”; on human insulin (12.5 mM, pH 8, 60 min), “able to reduce insulin”.

The values above are taken from patent US20230071765A1, “COMPOSITIONS HAVING THIOREDOXIN ACTIVITY AND RELATED METHODS” (ORPRO THERAPEUTICS, INC., priority 2020, published 2023).
